Data on 1 compound can be found in US20040132793A1, “Pyrazole derivatives” (Pfizer Inc., priority 2002, published 2004).

In general, IC50 refers to the concentration that gives 50% inhibition.

One data set is described as follows: Metabolism in Supermix. The data set is classed as in vitro ADME. The conditions noted are these: human, Supermix (Gentest), pH 7.4; Supermix 0.05 μM cytochrome P450; substrate 1 μM; 37° C., 1 hour; read-out: t 1/2 (Supermix). As to the method:
(§1) A. Metabolism in Human Liver Microsomes and Supermix™ The metabolic vulnerability of the compounds of the invention in microsomes and Supermix™ may be assayed as follows. The microsomal fraction is isolated from several human livers and the P450 content determined. Supermix™ is obtained from Gentest. Human microsomes (0.5 μM cytochrome P450) and Supermix™ (0.05 μM cytochrome P450) are added to an incubation media containing 50 mM phosphate buffer (pH7.4), 5 mM MgCl2, 1 mM NADP and an NADPH generating system consisting of isocitrate and isocitrate dehydrogenase. The substrate concentration is 1 μM and incubations are carried out at 37° C. for 1 hour. Samples are taken at time points throughout this period and analysed using hplc-ms-ms assay.

Data set [1] in a line: Metabolism in human hepatocytes. In kind it is in vitro ADME. The following applies: cryopreserved human hepatocytes 1 million cells/ml; substrate 3 μM; 37° C., 3 hours. As to the method:
B. Metabolism in Human Hepatocytes.
The metabolic vulnerability of the compounds of the invention in human hepatocytes may be assayed as follows.
Cryopreserved human hepatocytes are obtained from In vitro Technologies, Inc. The hepatocytes are thawed and suspended at 1 million cells/ml in 50% Krebs-Heinsleit buffer: 50% Williams E media containing 10% foetal bovine serum. The substrate concentration is 3 μM and incubations are carried out at 37° C. for 3 hours. Samples are taken at time points throughout this period and analysed using hplc-ms-ms assay.

Data set [2] is described as follows: Metabolism in human liver microsomes. In kind it is in vitro ADME. The following applies: pH 7.4, human microsomes 0.5 μM cytochrome P450, substrate 1 μM, 37° C., 1 hour, read-out: t 1/2 (human microsomal). The method, then: as §1
For orientation: Microsomes from liver hold many membrane-bound enzymes, among them those of drug oxidation.

Data set [3] concerns the target T1, purified recombinant HIV-1 reverse transcriptase (Human immunodeficiency virus type 1 group M subtype B, UniProt P04585).
T1 construct: purified recombinant HIV-1 reverse transcriptase (RT, EC, 2.7.7.49); made in house; host or cells: Escherichia coli
Briefly: Inhibition of HIV-1 reverse transcriptase enzyme. The data set is classed as biochemical. An excerpt:
The activity of the compounds of the invention as reverse transcriptase inhibitors may be measured using the following assay.
Inhibition of HIV-1 Reverse Transcriptase Enzyme
Using purified recombinant HIV-1 reverse transcriptase (RT, EC, 2.7.7.49) obtained by expression in Escherichia Coli, a 96-well plate assay system is established for assaying a large number of samples using either the Poly(rA)-oligo(dT) Reverse Transcriptase [3H]-SPA enzyme assay system (Amersham NK9020) or the [3H]-flashplate enzyme assay system (NEN-SMP 103) and following the manufacturer's recommendations. The compounds are dissolved in 100% DMSO and diluted with the appropriate buffer to a 5% final DMSO concentration. The inhibitory activity is expressed in percent inhibition relative to DMSO control.

As for `Cc1c(Oc2cc(C#N)cc(C#N)c2)c(C2CC2)nn1CCO` [Example 1, 5-{[3-Cyclopropyl-1-(2-hydroxyethyl)-5-methyl-1H-pyrazol-4-yl]oxy}isophthalonitrile], the half-life at 1 μM (in the data set “Metabolism in Supermix”; in data set [2]) was greater than 2 h throughout. The compound further yielded an unbound hepatocyte clearance in data set [1] of less than 9 mL/min/kg. For the same compound, the IC50 in data set [3] worked out at 0.295 µM.
